The values below come from ChEMBL document CHEMBL4138306, “Potent Inhibitors of Hepatitis C Virus NS3 Protease: Employment of a Difluoromethyl Group as a Hydrogen-Bond Donor” (ACS Med Chem Lett, 2018).

Usually EC50 stands for the concentration at which the effect is half-maximal. By IC50 is commonly meant the concentration at which inhibition is half-maximal. The AUC is concentration integrated over time. High values mean high exposure, low ones low exposure. A word on the bioavailability: it is dose-corrected exposure relative to a reference, in per cent.

The subject of one data set is Hepatitis C virus. The data set can be described thus: Antiviral activity against HCV genotype 1b Con1 infected in human HuH7.5 cells assessed as inhibition of viral replication after 4 days by luciferase reporter gene assay. Type of data set: functional, organism-based, Hepacivirus hominis. The settings on record: isolate Con1, Huh7.5, 96 h. In general terms: A reporter such as luciferase makes a cellular process visible.

The target of data set [1] is Hepatitis C virus serine protease, NS3/NS4A (Hepatitis C virus, UniProt A3EZI9+D2K2A8).
Description: Inhibition of recombinant full length HCV genotype 1a NS3/4A protease (1027 to 1711 residues) expressed in Escherichia coli strain BL21 (DE3) using RET S1 as substrate incubated for 1 min followed by substrate addition measured after 15 mins by FRET assay
Data set [2] can be described thus: Half life in human liver microsomes by LC/MS/MS analysis. Type of data set: ADME, microsome. In general terms: Liver microsomes are vesicles of endoplasmic reticulum, rich in cytochrome P450 enzymes.
Data set [3] can be described thus: AUC in Sprague-Dawley rat at 15 mg/kg, po administered via gavage or 5 mg/kg, iv administered as 10 mins infusion by LC/MS/MS analysis. The format is ADME, organism-based. The settings on record: in vivo.
The nature of data set [4]: Drug uptake in Sprague-Dawley rat liver at 15 mg/kg, po administered via gavage by LC/MS/MS analysis. The format is ADME, organism-based. The settings on record: in vivo, read-out: Drug uptake.
Data set [5] can be described thus: Oral bioavailability in Sprague-Dawley rat at 15 mg/kg, administered via gavage by LC/MS/MS analysis. The format is ADME, organism-based. To be noted: in vivo.
Data set [6] in a line: Clearance in Sprague-Dawley rat at 15 mg/kg, po administered via gavage or 5 mg/kg, iv administered as 10 mins infusion by LC/MS/MS analysis. The format is ADME, organism-based. The settings on record: in vivo.
Data set [7] in a line: Elimination half life in Sprague-Dawley rat at 15 mg/kg, po administered via gavage or 5 mg/kg, iv administered as 10 mins infusion by LC/MS/MS analysis. The settings on record: in vivo, read-out: beta t1/2 (converted). Type of data set: ADME, organism-based.
A short description of data set [8]: Permeability from apical to basolateral side in human Caco2 cells. The format is ADME, cell-based. To be noted: Caco-2, read-out: permeability.
Data set [9] in a line: Permeability from basolateral to apical side in human Caco2 cells. The format is ADME, cell-based. To be noted: Caco-2, read-out: permeability. In general terms: Caco-2 cells form a polarised layer with tight junctions and transporters.

SMILES strings stand for the structures.

Sequence of Hepatitis C virus serine protease, NS3/NS4A (D2K2A8 whole entry): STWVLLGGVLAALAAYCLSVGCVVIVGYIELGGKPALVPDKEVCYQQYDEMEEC
Sequence of Hepatitis C virus serine protease, NS3/NS4A (A3EZI9 whole entry): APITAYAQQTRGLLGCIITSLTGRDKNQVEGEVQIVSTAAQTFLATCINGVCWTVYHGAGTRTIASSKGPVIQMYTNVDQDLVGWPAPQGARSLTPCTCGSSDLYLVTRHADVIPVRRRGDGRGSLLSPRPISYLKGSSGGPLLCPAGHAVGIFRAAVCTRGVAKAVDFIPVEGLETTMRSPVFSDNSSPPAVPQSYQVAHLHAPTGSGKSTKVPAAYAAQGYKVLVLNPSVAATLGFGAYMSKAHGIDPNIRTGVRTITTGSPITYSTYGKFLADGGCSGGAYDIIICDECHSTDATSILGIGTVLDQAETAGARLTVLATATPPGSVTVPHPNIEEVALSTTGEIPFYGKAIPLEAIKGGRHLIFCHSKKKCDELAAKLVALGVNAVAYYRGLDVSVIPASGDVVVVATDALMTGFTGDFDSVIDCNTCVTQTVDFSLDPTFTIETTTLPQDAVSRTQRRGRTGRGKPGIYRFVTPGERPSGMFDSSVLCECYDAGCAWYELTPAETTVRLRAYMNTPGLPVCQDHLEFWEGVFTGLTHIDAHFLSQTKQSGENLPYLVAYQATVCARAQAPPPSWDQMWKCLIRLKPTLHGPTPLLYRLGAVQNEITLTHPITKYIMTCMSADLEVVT

As to `COc1cnc(O[C@@H]2C[C@@H](C(=O)N[C@@H](CC(F)F)C(=O)NS(=O)(=O)C3CC3)N(C(=O)[C@@H](NC(=O)OC(C)(C)C)C(C)(C)C)C2)c2cc(Cl)ccc12`, the EC50 with Hepatitis C virus was determined as 509 nM. In [1], the IC50 turned out to be 976 nM.
In the case of `COc1cnc(O[C@@H]2C[C@@H](C(=O)NC3(C(=O)NS(=O)(=O)C4CC4)CC3)N(C(=O)[C@@H](NC(=O)OC(C)(C)C)C(C)(C)C)C2)c2cc(Cl)ccc12`, the EC50 with Hepatitis C virus came out at 336 nM. In addition, the half-life in data set [2] was determined as 2 h. Besides, it took 40 nM to reach half-maximal inhibition in data set [1] (IC50).
With `CC[C@@H](NC(=O)[C@@H]1C[C@@H](Oc2ncc(OC)c3ccc(Cl)cc23)CN1C(=O)[C@@H](NC(=O)OC(C)(C)C)C(C)(C)C)C(=O)NS(=O)(=O)C1CC1`, the EC50 with Hepatitis C virus was greater than 1000 nM. Also, inhibition in data set [1] was half-maximal at 7980 nM (IC50).
Regarding `COc1cnc(O[C@@H]2C[C@@H](C(=O)N[C@]3(C(=O)NS(=O)(=O)C4CC4)C[C@H]3C)N(C(=O)[C@@H](NC(=O)OC(C)(C)C)C(C)(C)C)C2)c2cc(Cl)ccc12`, in the data set on Hepatitis C virus, the EC50 worked out at 64 nM. The compound also registered a half-life in data set [2] of 1.6 h. This compound also gave an IC50 in data set [1] of 13 nM.
In [1], `COc1ccc2c(O[C@@H]3C[C@@H](C(=O)NC(CC(F)F)C(=O)NS(=O)(=O)C4CC4)N(C(=O)[C@@H](NC(=O)OC(C)(C)C)C(C)(C)C)C3)cc(-c3ccccc3)nc2c1` (stereo partly drawn) gave an IC50 greater than 1000 nM.
As for `CC[C@@H]1C[C@]1(NC(=O)[C@@H]1C[C@@H](Oc2ncc(OC)c3ccc(Cl)cc23)CN1C(=O)[C@@H](NC(=O)OC(C)(C)C)C(C)(C)C)C(=O)NS(=O)(=O)C1CC1`, in the data set on Hepatitis C virus, the EC50 is 16 nM. Also, the AUC at 10 min in data set [3] is 6.89 µM·h. The concentration in data set [4] was determined as 40.3 µM. In [1], this compound showed an IC50 of 5 nM.
For the compound `COc1cnc(O[C@@H]2C[C@@H](C(=O)N[C@H](CC(F)F)C(=O)NS(=O)(=O)C3CC3)N(C(=O)[C@@H](NC(=O)OC(C)(C)C)C(C)(C)C)C2)c2cc(Cl)ccc12`, the EC50 in the data set on Hepatitis C virus is greater than 1000 nM. Further, in [1], half-maximal inhibition (IC50) was put at 2480 nM.
Take `COc1cnc(O[C@@H]2C[C@@H](C(=O)NC3(C(=O)NS(=O)(=O)C4CC4)CCC3)N(C(=O)[C@@H](NC(=O)OC(C)(C)C)C(C)(C)C)C2)c2cc(Cl)ccc12`: the EC50 with Hepatitis C virus was found to be 1280 nM. Also, the IC50 in data set [1] turned out to be 261 nM.
For `CC[C@H](NC(=O)[C@@H]1C[C@@H](Oc2ncc(OC)c3ccc(Cl)cc23)CN1C(=O)[C@@H](NC(=O)OC(C)(C)C)C(C)(C)C)C(=O)NS(=O)(=O)C1CC1`, the concentration for a half-maximal effect (EC50) in the data set on Hepatitis C virus was greater than 1000 nM. This compound also yielded an IC50 in data set [1] of 3080 nM.
With `COc1cnc(O[C@@H]2C[C@@H](C(=O)NC(C)(C)C(=O)NS(=O)(=O)C3CC3)N(C(=O)[C@@H](NC(=O)OC(C)(C)C)C(C)(C)C)C2)c2cc(Cl)ccc12`, in the data set with Hepatitis C virus, the EC50 is greater than 1000 nM. Besides, in data set [1], half-maximal inhibition (IC50) required 2190 nM.
As for `C=CC[C@](C)(NC(=O)[C@@H]1C[C@@H](Oc2ncc(OC)c3ccc(Cl)cc23)CN1C(=O)[C@@H](NC(=O)OC(C)(C)C)C(C)(C)C)C(=O)NS(=O)(=O)C1CC1`, the EC50 with Hepatitis C virus was found to be 23000 nM. Moreover, the half-life in data set [2] was determined as 0.892 h. In data set [1], this compound yielded an IC50 of 33000 nM.
As for `C=C[C@@H]1C[C@]1(NC(=O)[C@@H]1C[C@@H](Oc2ncc(OC)c3ccc(Cl)cc23)CN1C(=O)[C@@H](NC(=O)OC(C)(C)C)C(C)(C)C)C(=O)NS(=O)(=O)C1CC1`, the AUC at 10 min in data set [3] stood at 1 µM·h.
Take `COc1cnc(O[C@@H]2C[C@@H](C(=O)N[C@]3(C(=O)NS(=O)(=O)C4CC4)C[C@H]3C(F)F)N(C(=O)[C@@H](NC(=O)OC(C)(C)C)C(C)(C)C)C2)c2cc(Cl)ccc12`: the EC50 in the data set on Hepatitis C virus is 7.6 to 8 nM. In addition, the figures for the half-life in [2] and in data set [7] were 2 h and 2.6 h, respectively. This compound had a bioavailability in data set [5] of 0.9%. In [6], this compound registered a clearance of 58 mL/min/kg. The AUC at 10 min in data set [3] turned out to be 0.05 µM·h. Also, the concentration in data set [4] is 0.27 µM. The Papp A→B in data set [8] was less than 1.5 ×10⁻⁶ cm/s. Moreover, the Papp B→A in data set [9] came out at 4.7 ×10⁻⁶ cm/s.
For the compound `COc1cnc(O[C@@H]2C[C@@H](C(=O)N[C@]3(C(=O)NS(=O)(=O)C4CC4)C[C@H]3C(F)(F)F)N(C(=O)[C@@H](NC(=O)OC(C)(C)C)C(C)(C)C)C2)c2cc(Cl)ccc12`, the EC50 in the data set with Hepatitis C virus was found to be 125 nM. In addition, in data set [2], the half-life came to 0.783 h. Also, the IC50 in data set [1] was 17 nM.
For `COc1cnc(O[C@@H]2C[C@@H](C(=O)N[C@]3(C(=O)NS(=O)(=O)C4CC4)C[C@H]3C3CC3)N(C(=O)[C@@H](NC(=O)OC(C)(C)C)C(C)(C)C)C2)c2cc(Cl)ccc12`, in the data set on Hepatitis C virus, the EC50 is 18.3 nM. This compound also had a bioavailability in data set [5] of 34 to 44.2%. In data set [6], this compound showed a clearance of 5.2 mL/min/kg. The AUC at 10 min in data set [3] was determined as 19.6 µM·h. For the same compound, the half-life in [7] is 6 to 10 h. The same compound came in with an IC50 in data set [1] of 6 nM.
For `COc1cnc(O[C@@H]2C[C@@H](C(=O)N[C@]3(C(=O)NS(=O)(=O)C4CC4)C[C@H]3CC(F)F)N(C(=O)[C@@H](NC(=O)OC(C)(C)C)C(C)(C)C)C2)c2cc(Cl)ccc12`, in the data set on Hepatitis C virus, the EC50 was determined as 31 nM. In data set [2], the half-life worked out at 3.33 h. In [1], this compound returned an IC50 of 14 nM.
